Experimental data reported in patent US20260250289A1, “BICYCLIC HETEROCYCLES AND THEIR USE AS WRN INHIBITORS” (Novartis AG, priority 2022, published 2026).
Read-outs that look alike come from different tables or passages of the source.

Legend:
SW48 cells = test: Proliferation assay SW48 (CellTiterGlo); type: cell-based; settings: Homo sapiens, SW48, 96 h, read-out: Proliferation Assay SW48 GI50
Text: (§1) The colon carcinoma cell lines SW48 (RRID: CVCL_1724), HCT 116 (RRID: CVCL_0291) and SNU-407 (RRID: CVCL_5058) were obtained from ATCC. The WRN-knockdown insensitive colon carcinoma cell line DLD-1 (RRID: CVCL_0248) was obtained from the Korean Cell Line Bank (KCLB), and used to generate a derivative in which the endogenous WRN gene copies were knocked out by CRISPR-mediated editing using standard CRISPR methods. The resulting cell line, DLD1-WRN-KO, was used to assess potential off-target compound effects.
SW48, SNU-407 and DLD1-WRN-KO cells were cultured in growth medium composed of RPMI-1640 (Amimed Cat #1-41F22-1), 2 mM L-Glutamine (Amimed Cat #5-10K50), 10 mM HEPES (Gibco Cat #15630-056), 1 mM sodium pyruvate (Amimed Cat #5-60F00-H), 1× Penicillin-Streptomycin (Amimed Cat #4-01F00-H) and 10% fetal calf serum (Amimed Cat #2-01F30-G, Lot #LB11566P). HCT 116 cells were cultured in growth medium composed of McCoys 5A (Amimed catalog #1-18F01-1), 2 mM L-Glutamine (Amimed Cat #5-10K50), 1× Penicillin-Streptomycin (Amimed Cat #4-01F00-H) and 10% fetal calf serum (Amimed Cat #2-01F30-G, Lot #LB11566P). All cells were maintained at 37° C. in a humidified 5% CO2 incubator.
Following filtration through a Steriflip-NY 20 μm filter (Millipore Cat #SCNY00020), trypsinized cells were seeded in 100 microliters growth medium at 2,000 (SW48) or 1,500 (SNU-407, DLD1-WRN-KO, HCT 116) cells/well into white, clear-bottom 96-well plates (Costar Cat #3903). Three replicate plates were prepared for each compound treatment condition. In addition, one plate (termed “day 0”) was prepared to quantify the number of viable cells at the time of compound addition. Following overnight incubation at 37° C. in a humidified 5% CO2 atmosphere, eight 3-fold serial dilutions of a given compound stock (obtained at a concentration of 10 mM in DMSO and stored at 4° C.) were dispensed directly into each of the triplicate assay plates using a HP 300D non-contact Digital Dispenser (TECAN). The final concentration of DMSO was normalized to 0.1% in all wells. 96 hours after compound addition, cellular ATP levels as a surrogate for cell viability was assessed following addition of 50 microliters CellTiterGlo (Promega Cat #G7573) reagent and luminescence quantification on a MPLEX multi-mode plate-reader (TECAN) following a 10 minute incubation at room temperature. The number of viable cells in the “day 0” plate were quantified identically on the day of compound addition.
For data analysis, the assay background signal that was determined in wells containing medium, but no cells, was subtracted from all other data points prior to further calculations. The extent of growth inhibition and potential cell kill was assessed by comparing the ATP levels (measured using CellTiterGlo, Promega) in compound-treated cells with those present at the time of compound addition. To this end, the following conditional concept was programmatically applied in HELIOS, an in-house software applying a multi-step decision tree to arrive at optimal concentration response curve fits (Gubler et al, SLAS DOI: 10.1177/2472555217752140) to calculate % growth (% G) for each compound-treated well: % G=(T−V0)/V0))*100 when T<V0, and % G=(T−V0)/(V−V0)))*100 when T≥V0, where V0 is the viability level at time of compound addition, while V and T represent vehicle-control and compound-treated viability levels, respectively, at the end of the compound incubation. 100%, 0% and −100% signify absence of growth inhibition, growth stasis, and complete cell kill, respectively. Compound concentrations leading to half-maximal growth inhibition (GI50) and residual cell viability at the highest tested compound concentration (Data (cmax), expressed in percent) were routinely calculated. Data analysis can also be carried out using commercially available software designed to derive IC50 values using 4-parameter fits (e.g. GraphPad Prism, XL fit). […]

[1] = biological target: T1, WRN helicase (aa N517-P1238) (Homo sapiens, UniProt Q14191); test: WRN ATPase assay (DNA dependent ATP hydrolysis, ADP-Glo); type: biochemical; settings: 3 hours pre-incubation, 300 micromolar ATP, FLAP26 DNA; geometric mean of at least 2
T1 construct: The core helicase motif of the WRN protein (aa N517-P1238) was produced for this assay; His (N); ZZ (N); 3C protease cleavage site (N); made in house; host or cells: Sf21 insect cells (baculovirus; virus and BIICs made in SF9)
Text: An ATPase assay was set up to measure the DNA dependent ATP hydrolysis activity of WRN helicase. This assay was used also to assess the inhibition properties of compounds of the invention on DNA dependent WRN ATPase activity.
The core helicase motif of the WRN protein (aa N517-P1238) was produced for this assay (protein production as described above). […] The ADP-Glo assay kit (Promega, Madison, WI) allowing the quantification of ADP produced in ATP hydrolysis reactions was used for setting up this assay.
Time course experiments were first performed in order to determine the best enzymatic assay conditions (including buffer conditions, reaction time and concentrations of protein, ATP and DNA substrates). A typical reaction consists of 10 nM WRN protein, 0.2 nM FLAP26, and 300 micromolar ATP in the following assay buffer: 30 mM Tris pH7.5, 2 mM MgCl2, 0.02% BSA, 50 mM NaCl, 0.1% pluronic F127 prepared in DNAse free water.
To evaluate the inhibition properties of compounds of the invention, serial dilutions were prepared in DMSO (10 half log dilutions from a 10 mM DMSO solution). […] The reaction was stopped with the addition of 5 microliters of the first ADP-Glo reagent and incubated for one hour to remove the excess amount of ATP. Afterwards, 10 microliters of ATP detection reagent was added and incubated for an additional hour before reading. Luminescence output was recorded using Tecan 1000 reader, with 5 minutes delay before reading. Each concentration of compound was tested in duplicates in the assay plate.
Following normalization of activity values for the wells to % inhibition (% inhibition=[(high control-sample)/(high control-low control)]×100), IC50 fitting was carried out from the duplicate determinations present on each plate according to [4]. Data analysis can also be carried out using commercially available software designed to derive IC50 values using 4-parameter fits (e.g. GraphPad Prism, XL fit). The reported IC50 values are the geometrical means of at least 2 independent replicates.

DLD1-WRN-KO cells = test: Proliferation assay DLD1-WRN-KO (CellTiterGlo, off-target effects); type: cell-based; settings: 96 hours, geometric mean of at least 2
Method: as §1, with “The” for “The colon carcinoma cell lines SW48 (RRID: CVCL_1724), HCT 116 (RRID: CVCL_0291) and SNU-407 (RRID: CVCL_5058) were obtained from ATCC. The”, “effects. […]” for “effects.”
Three replicate plates were prepared for each compound treatment condition. In addition, one plate (termed “day 0”) was prepared to quantify the number of viable cells at the time of compound addition. Following overnight incubation at 37° C. in a humidified 5% CO2 atmosphere, eight 3-fold serial dilutions of a given compound stock (obtained at a concentration of 10 mM in DMSO and stored at 4° C.) were dispensed directly into each of the triplicate assay plates using a HP 300D non-contact Digital Dispenser (TECAN). The final concentration of DMSO was normalized to 0.1% in all wells. 96 hours after compound addition, cellular ATP levels as a surrogate for cell viability was assessed following addition of 50 microliters CellTiterGlo (Promega Cat #G7573) reagent and luminescence quantification on a MPLEX multi-mode plate-reader (TECAN) following a 10 minute incubation at room temperature. The number of viable cells in the “day 0” plate were quantified identically on the day of compound addition.
For data analysis, the assay background signal that was determined in wells containing medium, but no cells, was subtracted from all other data points prior to further calculations. The extent of growth inhibition and potential cell kill was assessed by comparing the ATP levels (measured using CellTiterGlo, Promega) in compound-treated cells with those present at the time of compound addition. […] 100%, 0% and −100% signify absence of growth inhibition, growth stasis, and complete cell kill, respectively. Compound concentrations leading to half-maximal growth inhibition (GI50) and residual cell viability at the highest tested compound concentration (Data (cmax), expressed in percent) were routinely calculated. Data analysis can also be carried out using commercially available software designed to derive IC50 values using 4-parameter fits (e.g. GraphPad Prism, XL fit). The reported GI50 values are the geometrical means of at least 2 independent replicates.

[2] = SW48 colon carcinoma cells, 96 hours, CellTiterGlo, geometric mean of at least 2

T1 sequence (Q14191 517-1238): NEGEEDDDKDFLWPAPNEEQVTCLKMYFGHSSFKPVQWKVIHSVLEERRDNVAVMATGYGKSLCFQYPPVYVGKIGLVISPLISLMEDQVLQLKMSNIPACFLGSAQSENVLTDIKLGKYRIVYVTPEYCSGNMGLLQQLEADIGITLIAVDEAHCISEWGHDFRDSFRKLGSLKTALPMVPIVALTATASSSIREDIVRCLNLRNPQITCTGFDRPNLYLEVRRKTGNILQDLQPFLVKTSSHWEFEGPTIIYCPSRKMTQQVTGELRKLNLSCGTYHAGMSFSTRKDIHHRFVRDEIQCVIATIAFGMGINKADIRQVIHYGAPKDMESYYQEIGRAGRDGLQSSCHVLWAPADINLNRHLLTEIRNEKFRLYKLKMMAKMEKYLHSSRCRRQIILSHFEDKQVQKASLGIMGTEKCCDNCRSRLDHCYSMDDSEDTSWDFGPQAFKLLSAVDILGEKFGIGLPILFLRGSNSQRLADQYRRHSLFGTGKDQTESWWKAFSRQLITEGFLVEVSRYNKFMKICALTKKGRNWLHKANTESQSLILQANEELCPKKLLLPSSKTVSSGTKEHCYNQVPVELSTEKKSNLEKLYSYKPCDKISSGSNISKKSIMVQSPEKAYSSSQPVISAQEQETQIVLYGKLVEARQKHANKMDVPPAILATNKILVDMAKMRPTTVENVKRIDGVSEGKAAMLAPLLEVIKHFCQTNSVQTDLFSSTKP

Row | SMILES | GI50 (SW48 cells; [2]) | IC50 [1] | GI50 (DLD1-WRN-KO cells) | GI50 (SW48 cells)
1 | Cc1c(N2CCN(C(=O)NNC(=O)C(F)(F)F)CC2)c(=O)n2nc(C3=CCOCC3)nc2n1CC(=O)Nc1ccc(C(F)(F)F)cc1 [Example 165, 2-(2-(3,6-dihydro-2H-pyran-4-yl)-5-methyl-7-oxo-6-(4-(2-(2,2,2-trifluoroacetyl)hydrazine-1-carbonyl)piperazin-1-yl)-[1,2,4]triazolo[1,5-a]pyrimidin-4(7H)-yl)-N-(4-(trifluoromethyl)phenyl)acetamide] | > 10000 nM | 90 nM | – | –
2 | Cc1c(N2CCN(C(=O)c3cnccc3O)CC2)c(=O)n2nc(C3=CCOCC3)nc2n1CC(=O)Nc1ccc(C(F)(F)F)cc1 [Example 24, 2-(2-(3,6-dihydro-2H-pyran-4-yl)-6-(4-(4-hydroxynicotinoyl)piperazin-1-yl)-5-methyl-7-oxo-[1,2,4]triazolo[1,5-a]pyrimidin-4(7H)-yl)-N-(4-(trifluoromethyl)phenyl)acetamide] | > 10000 nM | 200 nM | > 10000 nM | –
3 | Cc1c(N2CCN(C(=O)c3cc(F)ccc3O)CC2)c(=O)n2nc(N3CCOCC3)nc2n1CC(=O)Nc1ccc(C(F)(F)F)cc1 [Example 151, 2-(6-(4-(5-fluoro-2-hydroxybenzoyl)piperazin-1-yl)-5-methyl-2-morpholino-7-oxo-[1,2,4]triazolo[1,5-a]pyrimidin-4(7H)-yl)-N-(4-(trifluoromethyl)phenyl)acetamide] | 4000 nM | 200 nM | – | –
4 | CCc1c(N2CCN(C(=O)c3nccc4cc[nH]c34)CC2)c(=O)n2nc(C3=CCOCC3)nc2n1CC(=O)Nc1ccc(C(F)(F)F)cc1C [Example 41, 2-(6-(4-(1H-pyrrolo[2,3-c]pyridine-7-carbonyl)piperazin-1-yl)-2-(3,6-dihydro-2H-pyran-4-yl)-5-ethyl-7-oxo-[1,2,4]triazolo[1,5-a]pyrimidin-4(7H)-yl)-N-(2-methyl-4-(trifluoromethyl)phenyl)acetamide] | – | – | – | 100 nM

The remaining molecules from weak to strong by GI50 (SW48 cells; [2]), led by results:

Row | GI50 (SW48 cells; [2]) | IC50 [1] | GI50 (DLD1-WRN-KO cells) | GI50 (SW48 cells) | SMILES
5 | 4000 nM | 500 nM | > 10000 nM | – | CC(=O)N1CCN(c2c(C)n(CC(=O)Nc3cc(Cl)c(C(F)(F)F)nc3C)c3nc(C4=CCOCC4)nn3c2=O)CC1 [Example 87, 2-(6-(4-acetylpiperazin-1-yl)-2-(3,6-dihydro-2H-pyran-4-yl)-5-methyl-7-oxo-[1,2,4]triazolo[1,5-a]pyrimidin-4(7H)-yl)-N-(5-chloro-2-methyl-6-(trifluoromethyl)pyridin-3-yl)acetamide]
6 | 3000 nM | 800 nM | > 10000 nM | – | CC(=O)N1CCN(c2c(C)n(CC(=O)Nc3ccc(C(F)(F)F)cc3Br)c3nc(C4=CCOCC4)nn3c2=O)CC1 [Example 32, 2-(6-(4-acetylpiperazin-1-yl)-2-(3,6-dihydro-2H-pyran-4-yl)-5-methyl-7-oxo-[1,2,4]triazolo[1,5-a]pyrimidin-4(7H)-yl)-N-(2-bromo-4-(trifluoromethyl)phenyl)acetamide]
7 | 3000 nM | – | – | – | CCc1ccc(NC(=O)Cn2c(C)c(C3CCN(C(C)=O)CC3)c(=O)n3nc(C4=CCOCC4)nc23)cc1Cl [Example 144, 2-(6-(1-acetylpiperidin-4-yl)-2-(3,6-dihydro-2H-pyran-4-yl)-5-methyl-7-oxo-[1,2,4]triazolo[1,5-a]pyrimidin-4(7H)-yl)-N-(3-chloro-4-ethylphenyl)acetamide]
8 | 2000 nM | – | – | – | CC(=O)N1CCC(c2c(C)n(CC(=O)Nc3ccc(C(F)(F)F)cc3)c3nc(C4=CCCCC4)nn3c2=O)CC1 [Example 145, 2-(6-(1-acetylpiperidin-4-yl)-2-(cyclohex-1-en-1-yl)-5-methyl-7-oxo-[1,2,4]triazolo[1,5-a]pyrimidin-4(7H)-yl)-N-(4-(trifluoromethyl)phenyl)acetamide]
9 | 500 nM | 70 nM | > 10000 nM | – | CCc1c(N2CCN(C(=O)c3ccnc(F)c3O)CC2)c(=O)n2nc(C3=CCOCC3)nc2n1CC(=O)Nc1ccc(C(F)(F)F)cc1Cl [Example 42, N-(2-chloro-4-(trifluoromethyl)phenyl)-2-(2-(3,6-dihydro-2H-pyran-4-yl)-5-ethyl-6-(4-(2-fluoro-3-hydroxyisonicotinoyl)piperazin-1-yl)-7-oxo-[1,2,4]triazolo[1,5-a]pyrimidin-4(7H)-yl)acetamide]
